The source made the active and inactive calls. No cut-off for these calls is given here.
Columns and labels:
[1] = target: Lysine-specific demethylase 5A (Homo sapiens, UniProt P29375); experiment: Inhibition of KDM5A (unknown origin)
[2] = Inhibition of KDM5 in human PC9 cells assessed as demethylation of H3K4Me3; type: cell-based; conditions: PC-9
[3] = Dissociation constant, pKa of the compound; type: physicochemical
[4] = Octanol-aqueous buffer distribution coefficient, log D of the compound at pH 7.4; type: physicochemical
[5] = Protein binding in human plasma; type: ADME, cell-free; conditions: read-out: PPB (converted)
[6] = Clearance in CD-1 mouse plasma at 1 mg/kg, iv or 5 mg/kg, po; type: ADME, organism-based
[7] = Half life in CD-1 mouse at 1 mg/kg, iv or 5 mg/kg, po; type: ADME, organism-based; conditions: in vivo
[8] = Volume of distribution in CD-1 mouse at 1 mg/kg, iv or 5 mg/kg, po; type: ADME, organism-based; conditions: in vivo
[9] = Oral bioavailability in CD-1 mouse at 5 mg/kg; type: ADME, organism-based; conditions: in vivo
[10] = Dissociation constant, pKa of the compound at pH 7.4; type: physicochemical
[11] = target: Lysine-specific demethylase 5B (Homo sapiens, UniProt Q9UGL1); experiment: Inhibition of KDM5B (unknown origin)
[12] = target: Lysine-specific demethylase 5C (Homo sapiens, UniProt P41229); experiment: Inhibition of KDM5C (unknown origin)
Sequence of Lysine-specific demethylase 5C (P41229 whole entry): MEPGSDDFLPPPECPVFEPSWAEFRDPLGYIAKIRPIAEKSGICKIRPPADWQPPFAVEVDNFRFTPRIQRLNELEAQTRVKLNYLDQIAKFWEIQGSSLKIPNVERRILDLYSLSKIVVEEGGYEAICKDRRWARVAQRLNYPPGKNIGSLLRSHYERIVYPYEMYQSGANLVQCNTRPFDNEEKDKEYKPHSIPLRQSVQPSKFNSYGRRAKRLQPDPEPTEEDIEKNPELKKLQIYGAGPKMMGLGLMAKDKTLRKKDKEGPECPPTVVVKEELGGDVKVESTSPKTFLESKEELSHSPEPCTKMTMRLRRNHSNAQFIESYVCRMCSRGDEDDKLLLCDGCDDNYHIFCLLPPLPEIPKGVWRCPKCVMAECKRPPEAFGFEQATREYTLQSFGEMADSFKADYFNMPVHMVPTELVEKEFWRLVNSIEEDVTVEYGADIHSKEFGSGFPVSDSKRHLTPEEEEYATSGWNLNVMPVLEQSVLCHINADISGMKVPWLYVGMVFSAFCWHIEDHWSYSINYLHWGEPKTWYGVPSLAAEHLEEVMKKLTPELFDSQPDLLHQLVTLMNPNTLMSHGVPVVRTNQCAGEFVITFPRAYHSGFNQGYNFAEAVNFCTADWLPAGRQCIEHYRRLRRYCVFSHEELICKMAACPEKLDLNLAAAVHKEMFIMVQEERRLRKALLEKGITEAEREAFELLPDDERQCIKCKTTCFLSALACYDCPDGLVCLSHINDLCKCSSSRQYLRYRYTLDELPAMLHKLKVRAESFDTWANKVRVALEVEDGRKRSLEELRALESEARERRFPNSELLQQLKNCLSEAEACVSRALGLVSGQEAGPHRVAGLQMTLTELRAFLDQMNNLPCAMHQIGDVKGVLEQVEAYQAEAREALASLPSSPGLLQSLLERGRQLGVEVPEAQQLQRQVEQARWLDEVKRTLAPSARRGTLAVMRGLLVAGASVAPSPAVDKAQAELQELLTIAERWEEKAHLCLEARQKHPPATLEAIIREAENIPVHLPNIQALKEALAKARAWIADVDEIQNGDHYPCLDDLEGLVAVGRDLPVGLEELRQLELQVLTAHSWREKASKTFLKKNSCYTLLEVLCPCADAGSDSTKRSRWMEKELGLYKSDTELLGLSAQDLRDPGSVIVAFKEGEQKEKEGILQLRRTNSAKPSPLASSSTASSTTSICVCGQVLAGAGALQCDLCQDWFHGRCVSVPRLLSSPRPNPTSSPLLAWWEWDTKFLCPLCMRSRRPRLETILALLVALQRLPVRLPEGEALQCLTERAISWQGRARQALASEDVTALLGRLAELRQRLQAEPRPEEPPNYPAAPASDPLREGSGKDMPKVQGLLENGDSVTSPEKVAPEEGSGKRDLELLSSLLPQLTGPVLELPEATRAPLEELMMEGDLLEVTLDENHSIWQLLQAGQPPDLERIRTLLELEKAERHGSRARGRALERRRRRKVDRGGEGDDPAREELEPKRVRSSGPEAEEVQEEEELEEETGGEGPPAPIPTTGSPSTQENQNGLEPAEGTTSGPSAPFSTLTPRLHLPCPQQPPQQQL

[13] = target: Lysine-specific histone demethylase 1A (Homo sapiens) (UniProt O60341); experiment: Inhibition of KDM1A (unknown origin)
[14] = target: T1, Lysine-specific demethylase 2B (Homo sapiens) (UniProt Q8NHM5); experiment: Inhibition of KDM2B (unknown origin)
T1 sequence (whole entry): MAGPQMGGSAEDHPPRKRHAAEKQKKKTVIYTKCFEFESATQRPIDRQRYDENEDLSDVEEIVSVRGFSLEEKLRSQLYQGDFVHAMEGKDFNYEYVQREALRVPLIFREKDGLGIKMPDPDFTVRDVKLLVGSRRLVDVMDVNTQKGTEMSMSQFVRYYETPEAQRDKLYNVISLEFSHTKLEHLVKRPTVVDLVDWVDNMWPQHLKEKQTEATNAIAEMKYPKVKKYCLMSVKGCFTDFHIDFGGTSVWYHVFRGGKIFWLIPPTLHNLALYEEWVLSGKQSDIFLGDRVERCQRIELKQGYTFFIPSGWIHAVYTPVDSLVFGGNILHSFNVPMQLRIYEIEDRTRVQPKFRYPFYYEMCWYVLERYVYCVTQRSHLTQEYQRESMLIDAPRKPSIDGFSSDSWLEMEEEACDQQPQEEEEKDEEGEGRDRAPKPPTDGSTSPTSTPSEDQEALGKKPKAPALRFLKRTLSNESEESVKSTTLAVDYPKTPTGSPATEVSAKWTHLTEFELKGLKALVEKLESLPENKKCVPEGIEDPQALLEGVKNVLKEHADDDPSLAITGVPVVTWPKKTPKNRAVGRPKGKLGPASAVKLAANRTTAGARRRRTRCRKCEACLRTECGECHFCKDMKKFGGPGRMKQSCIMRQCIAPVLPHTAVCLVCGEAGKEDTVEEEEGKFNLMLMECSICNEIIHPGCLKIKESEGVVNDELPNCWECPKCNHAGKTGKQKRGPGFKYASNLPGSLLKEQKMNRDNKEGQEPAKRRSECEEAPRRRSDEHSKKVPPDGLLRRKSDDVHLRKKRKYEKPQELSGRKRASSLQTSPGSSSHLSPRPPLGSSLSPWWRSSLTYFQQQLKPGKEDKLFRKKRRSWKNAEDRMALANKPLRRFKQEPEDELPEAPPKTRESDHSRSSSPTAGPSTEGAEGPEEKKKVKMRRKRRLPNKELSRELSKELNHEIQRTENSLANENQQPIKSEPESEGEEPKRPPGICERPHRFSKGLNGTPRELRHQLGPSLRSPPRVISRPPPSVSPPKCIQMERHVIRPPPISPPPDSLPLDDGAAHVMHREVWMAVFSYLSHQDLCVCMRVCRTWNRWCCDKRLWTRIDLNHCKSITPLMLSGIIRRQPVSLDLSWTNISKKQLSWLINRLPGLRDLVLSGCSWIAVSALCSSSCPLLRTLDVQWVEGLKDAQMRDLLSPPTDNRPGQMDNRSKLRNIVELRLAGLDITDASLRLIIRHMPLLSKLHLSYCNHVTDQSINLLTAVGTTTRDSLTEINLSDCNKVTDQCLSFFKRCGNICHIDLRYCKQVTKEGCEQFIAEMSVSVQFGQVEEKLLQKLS

[15] = target: Lysine-specific demethylase 3B (Homo sapiens) (UniProt Q7LBC6); experiment: Inhibition of KDM3B (unknown origin)
[16] = target: Lysine-specific demethylase 6A (Homo sapiens) (UniProt O15550); experiment: Inhibition of KDM6A (unknown origin)
[17] = target: Histone lysine demethylase PHF8 (Homo sapiens) (UniProt Q9UPP1); experiment: Inhibition of KDM7B (unknown origin)
Sequence of Histone lysine demethylase PHF8 (Homo sapiens) (Q9UPP1 whole entry): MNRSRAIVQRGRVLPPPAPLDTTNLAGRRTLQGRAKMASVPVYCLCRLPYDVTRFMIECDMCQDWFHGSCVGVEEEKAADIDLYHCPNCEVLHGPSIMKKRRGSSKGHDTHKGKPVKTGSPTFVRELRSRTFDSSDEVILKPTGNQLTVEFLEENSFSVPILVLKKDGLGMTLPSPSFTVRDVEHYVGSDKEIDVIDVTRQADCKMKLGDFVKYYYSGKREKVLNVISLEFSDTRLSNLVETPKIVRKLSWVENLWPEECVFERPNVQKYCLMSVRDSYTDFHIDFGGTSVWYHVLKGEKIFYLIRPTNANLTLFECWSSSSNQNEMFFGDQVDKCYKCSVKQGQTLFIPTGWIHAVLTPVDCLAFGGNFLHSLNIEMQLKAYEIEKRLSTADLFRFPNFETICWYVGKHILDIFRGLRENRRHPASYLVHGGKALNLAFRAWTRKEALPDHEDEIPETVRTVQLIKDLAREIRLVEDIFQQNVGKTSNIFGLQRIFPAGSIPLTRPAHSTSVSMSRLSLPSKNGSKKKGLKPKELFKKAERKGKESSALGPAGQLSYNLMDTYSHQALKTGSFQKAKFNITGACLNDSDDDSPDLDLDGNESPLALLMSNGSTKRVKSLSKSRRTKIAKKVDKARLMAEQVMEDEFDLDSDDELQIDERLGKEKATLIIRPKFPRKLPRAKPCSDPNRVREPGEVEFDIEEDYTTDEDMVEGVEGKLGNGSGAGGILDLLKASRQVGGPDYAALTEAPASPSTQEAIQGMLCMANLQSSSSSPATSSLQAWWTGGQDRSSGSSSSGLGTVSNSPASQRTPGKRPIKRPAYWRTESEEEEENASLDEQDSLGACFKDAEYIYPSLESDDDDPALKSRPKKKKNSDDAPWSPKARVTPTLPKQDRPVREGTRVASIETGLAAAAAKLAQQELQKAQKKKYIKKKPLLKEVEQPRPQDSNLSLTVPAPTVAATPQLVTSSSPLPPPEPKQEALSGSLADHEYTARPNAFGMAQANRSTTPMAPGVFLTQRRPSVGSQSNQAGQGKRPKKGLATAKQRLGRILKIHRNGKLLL

[18] = Cmax in mouse at 50 mg/kg, po bid; type: ADME, organism-based; design: dose 50 mg/kg, route oral; conditions: in vivo
[19] = Protein binding in mouse plasma; type: ADME, cell-free; conditions: read-out: PPB (converted)
[20] = fCmax in mouse at 50 mg/kg, po bid; type: ADME, organism-based; conditions: in vivo

Sequence of Lysine-specific demethylase 5A (P29375 whole entry): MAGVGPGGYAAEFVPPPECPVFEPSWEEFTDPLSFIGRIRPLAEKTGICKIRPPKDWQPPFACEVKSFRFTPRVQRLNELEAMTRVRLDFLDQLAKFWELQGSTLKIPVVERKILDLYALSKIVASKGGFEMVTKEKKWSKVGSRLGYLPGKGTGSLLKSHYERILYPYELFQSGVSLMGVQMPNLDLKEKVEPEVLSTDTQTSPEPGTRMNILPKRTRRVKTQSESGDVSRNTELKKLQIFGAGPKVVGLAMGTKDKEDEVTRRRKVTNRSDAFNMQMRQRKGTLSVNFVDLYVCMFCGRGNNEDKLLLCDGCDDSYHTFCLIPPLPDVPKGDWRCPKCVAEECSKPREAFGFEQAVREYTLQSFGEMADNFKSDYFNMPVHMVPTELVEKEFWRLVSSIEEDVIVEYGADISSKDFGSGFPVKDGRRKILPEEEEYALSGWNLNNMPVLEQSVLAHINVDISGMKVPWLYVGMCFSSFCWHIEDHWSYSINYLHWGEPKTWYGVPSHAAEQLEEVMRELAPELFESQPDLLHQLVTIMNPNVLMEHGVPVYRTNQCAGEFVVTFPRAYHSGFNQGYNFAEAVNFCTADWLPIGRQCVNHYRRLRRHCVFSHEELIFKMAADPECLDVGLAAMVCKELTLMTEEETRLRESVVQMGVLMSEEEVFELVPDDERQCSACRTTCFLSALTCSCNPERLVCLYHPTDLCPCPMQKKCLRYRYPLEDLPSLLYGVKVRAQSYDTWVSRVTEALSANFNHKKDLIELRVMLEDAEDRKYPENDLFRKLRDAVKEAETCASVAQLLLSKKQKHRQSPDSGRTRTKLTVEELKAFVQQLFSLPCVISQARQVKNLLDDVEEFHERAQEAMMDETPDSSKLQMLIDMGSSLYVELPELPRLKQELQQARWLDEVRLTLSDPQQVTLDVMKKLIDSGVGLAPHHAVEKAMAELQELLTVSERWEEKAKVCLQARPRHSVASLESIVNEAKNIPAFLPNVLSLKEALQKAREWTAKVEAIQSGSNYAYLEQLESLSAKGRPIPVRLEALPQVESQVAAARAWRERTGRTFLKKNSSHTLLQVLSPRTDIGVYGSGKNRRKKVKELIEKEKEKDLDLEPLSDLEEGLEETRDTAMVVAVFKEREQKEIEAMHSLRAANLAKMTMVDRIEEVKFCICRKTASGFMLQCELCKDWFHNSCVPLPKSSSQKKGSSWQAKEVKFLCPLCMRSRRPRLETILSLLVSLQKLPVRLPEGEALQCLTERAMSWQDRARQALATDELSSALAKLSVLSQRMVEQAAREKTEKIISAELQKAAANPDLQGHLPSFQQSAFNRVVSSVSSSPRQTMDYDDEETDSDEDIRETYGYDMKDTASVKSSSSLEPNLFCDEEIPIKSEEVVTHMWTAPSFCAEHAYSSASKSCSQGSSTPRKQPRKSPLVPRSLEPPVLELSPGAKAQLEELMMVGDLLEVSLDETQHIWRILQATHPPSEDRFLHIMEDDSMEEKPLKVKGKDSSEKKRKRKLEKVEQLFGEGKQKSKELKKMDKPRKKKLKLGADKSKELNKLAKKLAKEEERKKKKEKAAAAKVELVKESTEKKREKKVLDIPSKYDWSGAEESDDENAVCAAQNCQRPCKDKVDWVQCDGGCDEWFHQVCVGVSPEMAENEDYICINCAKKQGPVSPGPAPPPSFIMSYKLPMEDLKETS

Row | SMILES | IC50 [1] [nM] | EC50 [2] [nM] | other results
1 | CC(C)c1c(Oc2ccccc2)[nH]c2c(C#N)cnn2c1=O | 18 | > 30000 | pKa [3]: 9.8
2 | CC(C)c1c(-c2cnn(C3COC3)c2)[nH]c2c(C#N)cnn2c1=O | 15.9 | 8300 | logD [4]: -0.1; fraction unbound [5]: 0.04
3 | CC(C)c1c(-c2cnn(C(C)C)c2)[nH]c2c(C#N)cnn2c1=O | 13.8 | 440 | logD [4]: 0.93; fraction unbound [5]: 0.013; clearance [6]: 15.7 mL/min/kg; half-life [7]: 36.6 min; Vd [8]: 0.54 L/kg; bioavailability [9]: 69.5%
4 | N#Cc1cnn2c(=O)c(C3CCC3)c(-c3ccccc3)[nH]c12 | 9.2 | > 30000 | 
5 | CC(C)c1c(Nc2ccccc2)[nH]c2c(C#N)cnn2c1=O | 27.5 | > 30000 | pKa [3]: 8.2
6 | CC(C)c1c(-c2cccc(OC(F)(F)F)c2)[nH]c2c(C#N)cnn2c1=O | 28.9 |  | 
7 | CC(CO)c1c(-c2ccccc2)[nH]c2c(C#N)cnn2c1=O (configuration not stated) | 29 |  | 
8 | CC(C)c1c(-c2cn[nH]c2)[nH]c2c(C#N)cnn2c1=O | 5.3 | 1200 | fraction unbound [5]: 0.026
9 | CC(C)c1c(-c2ccccc2)[nH]c2c(C#N)cnn2c1=O |  |  | pKa [10]: 6
10 | Cc1ccc(-c2[nH]c3c(C#N)cnn3c(=O)c2C(C)C)cc1 | 20.3 |  | 
11 | CC(C)c1c(-c2ccc(C(F)(F)F)cc2)[nH]c2c(C#N)cnn2c1=O | 18.2 |  | 
12 | C=Cc1c(-c2ccccc2)[nH]c2c(C#N)cnn2c1=O | 20.1 |  | 
13 | CC(C)c1c(-c2cnn(-c3ccccc3)c2)[nH]c2c(C#N)cnn2c1=O | 5.6 | 1700 | logD [4]: 1.8; fraction unbound [5]: 0.001; clearance [6]: 7.7 mL/min/kg; half-life [7]: 66 min; Vd [8]: 0.63 L/kg; bioavailability [9]: 21.3%
14 | CC(C)c1c(-c2cccnc2)[nH]c2c(C#N)cnn2c1=O | 12.3 | 9300 | 
15 | CC(C)c1c(/C=C/c2ccccc2)[nH]c2c(C#N)cnn2c1=O | 17.5 |  | 
16 | CC(C)c1c(N2CCCCC2)[nH]c2c(C#N)cnn2c1=O | 63.2 |  | 
17 | CCC(C)c1c(-c2ccccc2)[nH]c2c(C#N)cnn2c1=O (racemic) |  | 28400 | 
18 | CC(C)c1c(-c2ccc(OC(F)(F)F)cc2)[nH]c2c(C#N)cnn2c1=O | 35.9 |  | 
19 | Cc1[nH]c2c(C#N)cnn2c(=O)c1C(C)C | 9.3 | 13800 | 
20 | CC(C)c1c(-c2cnn(C3CC3)c2)[nH]c2c(C#N)cnn2c1=O | 7.9 | 1300 | logD [4]: 0.74; fraction unbound [5]: 0.008
21 | CC(C)c1c[nH]c2c(C#N)cnn2c1=O | 28.3 |  | 

Row | SMILES | IC50 [1] [nM] | EC50 [2] [nM] | other results
22 | COc1cc(-c2[nH]c3c(C#N)cnn3c(=O)c2C(C)C)ccn1 | 31.6 |  | 
23 | CC(C)c1c(CCc2ccccc2)[nH]c2c(C#N)cnn2c1=O | 13.1 | > 30000 | 
24 | CC(C)c1c(Cc2ccccc2)[nH]c2c(C#N)cnn2c1=O | 11.9 | > 30000 | 
25 | CC(C)c1c(-c2cccc(C(F)(F)F)c2)[nH]c2c(C#N)cnn2c1=O |  | 7500 | 
26 | C#CC(C)c1c(-c2ccccc2)[nH]c2c(C#N)cnn2c1=O (racemic) | 12.8 | 11300 | 
27 | C=C(C)c1c(-c2ccccc2)[nH]c2c(C#N)cnn2c1=O | 24.7 |  | 
28 | COC(=O)c1c(-c2ccccc2)[nH]c2c(C#N)cnn2c1=O | 319 |  | 
29 | COCCn1cc(-c2[nH]c3c(C#N)cnn3c(=O)c2C(C)C)cn1 | 10.4 | 1800 | logD [4]: 0.4; fraction unbound [5]: 0.033
30 | C#CCc1c(-c2ccccc2)[nH]c2c(C#N)cnn2c1=O | 21.1 |  | 
31 | CCc1[nH]c2c(C#N)cnn2c(=O)c1C(C)C | 9.5 | 12100 | 
32 | CC(C)c1c(-c2cnn(CCC#N)c2)[nH]c2c(C#N)cnn2c1=O | 10.1 | 2900 | logD [4]: -0.45; fraction unbound [5]: 0.066
33 | CC(C)c1c(-c2cncnc2)[nH]c2c(C#N)cnn2c1=O |  | > 30000 | 
34 | N#Cc1cnn2c(=O)c(Br)c(-c3ccccc3)[nH]c12 | 29.3 |  | 
35 | CC(C)c1c(-c2cnn(C3CCC3)c2)[nH]c2c(C#N)cnn2c1=O | 11.2 | 870 | logD [4]: 1.3; fraction unbound [5]: 0.004
36 | C=CC(C)c1c(-c2ccccc2)[nH]c2c(C#N)cnn2c1=O (racemic) | 15.5 | 16400 | 
37 | CC(C)c1c(N(C)C)[nH]c2c(C#N)cnn2c1=O | 76.6 |  | 
38 | CCn1cc(-c2[nH]c3c(C#N)cnn3c(=O)c2C(C)C)cn1 |  | 2300 | logD [4]: 0.66; fraction unbound [5]: 0.005
39 | CC(C)c1c(-c2cnn(C)c2)[nH]c2c(C#N)cnn2c1=O | 13.3 | 2000 | logD [4]: 0.4; fraction unbound [5]: 0.011; clearance [6]: 59.9 mL/min/kg; half-life [7]: 10.2 min; Vd [8]: 0.6 L/kg; bioavailability [9]: 61.3%
40 | CC(C)c1c(-c2ccc(Cl)cc2)[nH]c2c(C#N)cnn2c1=O | 20.4 |  | 
41 | CC(C)c1c(-c2ccco2)[nH]c2c(C#N)cnn2c1=O | 6.2 | 6700 | 
42 | CC(C)c1c(-c2cnn(C(C)(C)C)c2)[nH]c2c(C#N)cnn2c1=O | 15.1 | 340 | logD [4]: 1.4; fraction unbound [5]: 0.012; clearance [6]: 5 mL/min/kg; half-life [7]: 78 min; Vd [8]: 0.44 L/kg; bioavailability [9]: 100%; IC50 [11]: 4.7 nM; IC50 [12]: 65.5 nM; inhibition [13]: inactive; inhibition [14]: inactive; inhibition [15]: inactive; inhibition [16]: inactive; inhibition [17]: inactive; Cmax [18]: 206 µM; fraction unbound [19]: 0.025; fCmax [20]: 5.2 µM
